Source: patent publication US6689379B1, “Transdermal therapeutic system with neutralized acrylic adhesive patch” (priority 1999, dated 2004)

Experiment: EVA copolymer film permeation (modified Franz cell), release of active substance from pressure-sensitive adhesive film
Type: in vitro ADME
Settings: neutralization degrees 0 to 100% (KOH); EVA membrane; FIGS. 4, 5 and 6
Method: Examinations on the thermodynamics of a model of ethylene vinyl acetate (EVA) copolymer film permeation
For three basic pharmaceutical active agents, the release behaviour from an acid polyacrylate pressure-sensitive adhesive film in dependence from the neutralization of the adhesive and from the reagent used for this purpose was examined. All tests on EVA membrane were carried out with n=3 samples.
To this end, the active substance-containing pressure-sensitive adhesive films were stuck on an EVA film as carrier membrane, and the amount of active agent released over time through this membrane to an aqueous medium buffered to pH 5.5 and located on the opposite side was quantified by appropriate HPLC methods. […] Since in the embodiment examples the active substance represents the only component which is low-molecular and capable of migration, it is the tendency of exclusively this active substance to exudate from the polymer matrix of the pressure-sensitive adhesive and to migrate into the acceptor medium after passing through the EVA membrane which is recorded.
Independently of the permeation properties of human skin for such an active substance, the release tendency of the system in respect of the active substance as measured here is the most essential impetus for transdermal therapy by means of such a system. […]

For `CCN(C)C(=O)Oc1cccc([C@H](C)N(C)C)c1` [rivastigmin], the “dependence of the permeated active substance amount / release rate on the neutralization degree” value was “strong dependence of the effect from the neutralization degree”.
